# Columns and labels:
# Adenosine receptor A1 [1] = target: T1, Adenosine receptor A1 (Rattus norvegicus, UniProt P25099); test: Displacement of [3H]DPCPX from Sprague-Dawley rat whole brain membrane A1AR by scintillation counting analysis; assay type: cell membranes
# T1 sequence (P25099 whole entry): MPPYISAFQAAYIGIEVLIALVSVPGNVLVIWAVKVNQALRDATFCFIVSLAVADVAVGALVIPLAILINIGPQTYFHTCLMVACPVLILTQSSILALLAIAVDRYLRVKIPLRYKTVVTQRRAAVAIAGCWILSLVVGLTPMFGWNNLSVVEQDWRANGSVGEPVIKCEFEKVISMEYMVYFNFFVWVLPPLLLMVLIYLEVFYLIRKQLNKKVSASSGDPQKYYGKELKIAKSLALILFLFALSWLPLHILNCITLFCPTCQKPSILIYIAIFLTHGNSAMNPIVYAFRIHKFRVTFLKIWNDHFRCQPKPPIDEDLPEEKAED
# [2] = target: T2, Adenosine receptor A1 (Rattus norvegicus) (UniProt P25099); test: Displacement of [3H]DPCPX from Sprague-Dawley rat whole brain membrane A1AR at 100 uM by scintillation counting analysis relative to control; assay type: cell membranes
# T2 sequence (whole entry): T1 sequence (P25099 whole entry)
# Adenosine receptor A2a = Adenosine receptor A2a (Rattus norvegicus, UniProt P30543); test: Displacement of [3H]NECA from Sprague-Dawley rat striatal membrane A2A adenosine receptor by scintillation counting analysis; assay type: cell membranes, Striatum
# Adenosine receptor A2a, sequence (P30543 whole entry): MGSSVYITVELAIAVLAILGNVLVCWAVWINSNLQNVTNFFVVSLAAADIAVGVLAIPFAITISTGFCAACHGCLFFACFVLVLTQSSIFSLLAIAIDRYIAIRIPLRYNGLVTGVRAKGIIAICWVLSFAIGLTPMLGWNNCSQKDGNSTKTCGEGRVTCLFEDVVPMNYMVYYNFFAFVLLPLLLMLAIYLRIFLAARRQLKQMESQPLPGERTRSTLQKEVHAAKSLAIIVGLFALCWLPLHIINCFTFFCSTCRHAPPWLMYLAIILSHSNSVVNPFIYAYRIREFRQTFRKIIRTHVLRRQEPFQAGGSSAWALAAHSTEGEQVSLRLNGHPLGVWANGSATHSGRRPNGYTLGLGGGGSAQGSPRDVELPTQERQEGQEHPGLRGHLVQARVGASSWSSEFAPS
# [3] = target: Adenosine receptor A2a (Rattus norvegicus) (UniProt P30543); test: Displacement of [3H]NECA from Sprague-Dawley rat striatal membrane A2A adenosine receptor at 100 uM by scintillation counting analysis relative to control; assay type: cell membranes; details: Striatum
# Adenosine receptor A2a (Rattus norvegicus), sequence (P30543 whole entry): as above
# Adenosine receptor A1 [4] = target: T1, Adenosine receptor A1; test: Displacement of [3H]DPCPX from Sprague-Dawley rat whole brain membrane A1AR in presence of GTP by radioligand binding assay; assay type: cell membranes
# [5] = target: T2, Adenosine receptor A1 (Rattus norvegicus); test: Ratio of Ki for displacement of [3H]DPCPX from Sprague-Dawley rat whole brain membrane A1AR in presence of GTP to Ki for displacement of [3H]DPCPX from Sprague-Dawley rat whole brain A1AR; assay type: cell membranes
# Rattus norvegicus = species: Rattus norvegicus; test: Selectivity index, ratio of Ki for Sprague-Dawley rat striatal membrane A2 adenosine receptor to Ki for Sprague-Dawley rat whole brain A1 adenosine receptor
Ki (Adenosine receptor A1 [1]),inhibition [2],Ki (Adenosine receptor A2a),inhibition [3],Ki (Adenosine receptor A1 [4]),Ratio Ki [5],Ratio Ki (Rattus norvegicus),Structure (SMILES)
6.38 µM,,> 100 µM,49%,6.92 µM,1.09,,O=c1oc(-c2ccccc2)nc2ccccc12
> 100 µM,50%,> 100 µM,62%,,,,Oc1nc(-c2ccc(F)cc2)nc2ccccc12
5.06 µM,,> 100 µM,69%,5.72 µM,1.12,,O=C1OC(c2ccccc2)Nc2ccccc21 (centres undefined)
> 100 µM,,> 100 µM,,,,,O=c1[nH]c(-c2ccccc2)cc2ccccc12
> 100 µM,42%,> 100 µM,66%,,,,O=c1oc(-c2ccco2)nc2ccccc12
> 100 µM,84%,> 100 µM,77%,,,,Cc1ccc(-c2nc3ccccc3c(=O)o2)cc1
,44%,,79%,,,,COc1ccc(-c2nc(O)c3ccccc3n2)cc1
> 100 µM,95%,> 100 µM,92%,,,,O=c1oc(-c2ccc(Br)cc2)nc2ccccc12
> 100 µM,98%,> 100 µM,84%,,,,O=c1[nH]c(-c2ccc(Br)cc2)nc2ccccc12
> 100 µM,56%,> 100 µM,85%,,,,O=c1oc(/C=C/c2ccccc2)nc2ccccc12
> 100 µM,100%,> 100 µM,56%,,,,O=c1[nH]c(/C=C/c2ccccc2)nc2ccccc12
4.62 µM,,8.11 µM,,5.89 µM,1.23,1.76,O=c1[nH]c(-c2ccco2)nc2ccccc12
> 100 µM,39%,> 100 µM,30%,,,,Oc1nc(-c2cccs2)nc2ccccc12
> 100 µM,67%,2.81 µM,,,,,COc1ccc(-c2nc(O)c3ccccc3n2)cc1OC
> 100 µM,86%,> 100 µM,81%,,,,O=c1oc(-c2ccc(Cl)cc2)nc2ccccc12
> 100 µM,54%,> 100 µM,82%,,,,O=c1[nH]c(-c2ccc(Cl)cc2)nc2ccccc12
2.5 µM,,> 100 µM,55%,2.95 µM,1.18,,Cc1ccc(-c2nc3ccccc3c(=O)[nH]2)cc1
> 100 µM,51%,> 100 µM,77%,,,,O=c1oc2ccccc2cc1-c1ccccc1
> 100 µM,99%,> 100 µM,77%,,,,CCOc1ccc(-c2nc3ccccc3c(=O)o2)cc1
,100%,,100%,,,,Oc1nc(-c2ccccc2)cc2ccccc12
17.3 µM,,> 100 µM,91%,,,,O=c1oc2ccccc2nc1-c1ccccc1
32.4 µM,,> 100 µM,59%,,,,O=c1oc(-c2cccs2)nc2ccccc12
,,0.557 µM,,,,,OC[C@H]1O[C@@H](n2cnc3c(NC4CCCC4)ncnc32)[C@H](O)[C@@H]1O [N6-CYCLOPENTYLADENOSINE]

Structure (SMILES),Ki (Adenosine receptor A1 [1]),inhibition [2],Ki (Adenosine receptor A2a),inhibition [3],Ki (Adenosine receptor A1 [4]),Ratio Ki [5],Ratio Ki (Rattus norvegicus)
COc1ccc(-c2nc3ccccc3c(=O)o2)cc1,> 100 µM,54%,> 100 µM,37%,,,
O=c1oc(-c2ccc(F)cc2)nc2ccccc12,> 100 µM,100%,> 100 µM,70%,,,
COc1ccc(-c2nc3ccccc3c(=O)[nH]2)cc1,> 100 µM,,> 100 µM,,,,
